Laboratory results: patent US20200155566A1, “THERAPEUTIC COMBINATION OF A THIRD GENERATION EGFR TYROSINE KINASE INHIBITOR AND A CYCLIN D KINASE INHIBITOR” (Novartis AG, priority 2017, published 2020)

Key:
[1] = tested on: NCI-H1975 tumors (EGFR L858R, T790M); assay: In vivo efficacy study, NCI-H1975 xenograft tumor volume; set-up: species or system mouse; settings: Compound A 10 or 30 mg/kg p.o. qd, Compound B 80 mg/kg free base p.o. qd
Experimental: The tumor cells were cultured in tissue culture flasks in a humidified incubator at 37° C., in an atmosphere of 5% CO2 and 95% air.

[2] = tested on: phospho-EGFR (EGFR Y1068); assay: Western blot of phospho-EGFR after 72 hours of treatment; assay type: cell-based; settings: PC-14, NCI-H1975, HCC827, HCC4006, immunoblot
Experimental: NCI-H1975 (having mutations L858R, T790M), PC-14 (having mutations ex 19 del or exon 19 deletion), HCC827 (having mutation exl9del) and HCC4006 (having mutation exl9del) cells were cultured in RPMI-1640 growth medium (ATCC, catalog number 20-2001), supplemented with 10% fetal bovine serum (GIBCO, catalog number F4135) at 37° C. in a humidified 5% CO2 incubator. For the mechanistic studies, cells were seeded into tissue culture treated 6-well plates (Corning 3506) at a densities of 400k, 400k, 100K and 50k cells per well for HCC827, NCI-H1975, HCC4006 and PC-9 (having mutation exon 19 deletion) respectively, and allowed to attach overnight. […] After 72 hours of treatment, cells were lysed in 100 μl per well RIPA buffer (Sigma R0278) containing protease inhibitor cocktail (Sigma P8340), phosphatase inhibitor cocktail 2(Sigma P5726) and phosphatase inhibitor cocktail 3 (Sigma P0044). Cells were lysed on ice for 10 minutes, with scraping using a Cell Lifter (Corning 3008). Lysates were then micro-centrifuged at 14000rpm in an Eppendorf 5417R micro-centrifuge at 4° C.

[3] = tested on: EGFR mutant NSCLC cell lines (PC9, HCC827, HCC4006, MGH707); assay: Long-term viability study (confluence by incucyte zoom, four weeks); assay type: cell-based
Experimental: PC9 (3,000/well), HCC827 (10,000/well), HCC4006 (5000/well), and MGH707 (5000/well) cells were plated into 96-well plates and the following day treated with EGF816 (300nM) either alone or in combination with LEE011 (1000 nM) for four weeks. Drug was refreshed twice per week. Cell confluence was used as a surrogate for cell number and was measured by an incucyte zoom (Essen Biosciences) at the initiation of treatment and then twice (2x) per week thereafter.

[4] = tested on: EGFR mutant (L858R, exl9del and T790M) cancer models; settings: cited from earlier work
[5] = tested on: advanced non-small cell lung cancer (NSCLC) harboring T790M; settings: patients with advanced NSCLC harboring T790M; cited from earlier work
EGFR-mutant NSCLC = settings: 100 mg daily versus 150 mg daily, previous study; cited from earlier work
[6] = tested on: Epidermal Growth Factor Receptor (EGFR); settings: L858R, exl9del, T790M versus WT; cited from earlier work
CYP3A4/5 = settings: cited from earlier work
phospho-Rb (Rb S807/811) = assay: Western blot of phospho-Rb after 72 hours of treatment; assay type: cell-based; settings: PC-14, NCI-H1975, HCC827, HCC4006, immunoblot
Experimental: Several EGFR mutant NSCLC cell lines were treated for 72 hours with the EGF816 and LEE011 combination at different concentrations as follows. NCI-H1975 (having mutations L858R, T790M), PC-14 (having mutations ex 19 del or exon 19 deletion), HCC827 (having mutation exl9del) and HCC4006 (having mutation exl9del) cells were cultured in RPMI-1640 growth medium (ATCC, catalog number 20-2001), supplemented with 10% fetal bovine serum (GIBCO, catalog number F4135) at 37° C. in a humidified 5% CO2 incubator. For the mechanistic studies, cells were seeded into tissue culture treated 6-well plates (Corning 3506) at a densities of 400k, 400k, 100K and 50k cells per well for HCC827, NCI-H1975, HCC4006 and PC-9 (having mutation exon 19 deletion) respectively, and allowed to attach overnight. The cells were then exposed to a 3×3 matrix combination treatment of EGF816 and LEE011, at concentrations of 0, 0.12, 0.333 μM EGF816 vs. 0, 0.312, 2.5 μM LEE011. […]
Lysate' total protein content was determined by BCA assay (Pierce 23227), following the manufacturer's instructions, and samples were prepared for a western blot using Invitrogen LDS Sample Buffer (NP0007)) containing 200 mM DTT, boiled at 95° C. for 10 minutes, micro-centrifuged and 20 μg total protein loaded per well. […]

[7] = single agent ribociclib, 3 weeks on/1 week off; cited from earlier work

SMILES: Cc1cc(C(=O)Nc2nc3cccc(Cl)c3n2[C@@H]2CCCCN(C(=O)/C=C/CN(C)C)C2)ccn1 [EGF816, (R,E)-N-(7-chloro-1-(1-(4-(dimethylamino)but-2-enoyl)azepan-3-yl)-1H-benzo[d]imidazol-2-yl)-2-methylisonicotinamide]
- tumor volume changes over time [1]: significant tumor regressions, which increased at higher doses
- EGFR phosphorylation (EGFR Y1068) [2]: inhibited in a dose dependent manner across all cell lines
- regrowth of cells (confluence as surrogate for cell number) ([3]; EGF816 300nM alone or with LEE011 1000 nM): begin to slowly regrow
- apoptosis and cell cycle arrest ([3]; EGF816 300nM, PC9, HCC827, HCC4006, MGH707): varying degrees of apoptosis and cell cycle arrest
- tolerability, body weight ([4]; efficacious doses, xenograft models): well tolerated with no body weight loss observed at efficacious doses
- anti-tumor efficacy in xenograft models ([4]; several xenograft models): Dose-dependent anti-tumor efficacy
- antitumor activity in patients [5]: durable antitumor activity
- rates of rash and diarrhoea (EGFR-mutant NSCLC): lower rates of rash and diarrhoea were observed at 100 mg daily
- selectivity for mutant EGFR over wild type EGFR [6]: selectively inhibits activating and acquired resistance mutants (L858R, exl9del and T790M), while sparing wild type (WT) EGFR

SMILES: CN(C)C(=O)c1cc2cnc(Nc3ccc(N4CCNCC4)cn3)nc2n1C1CCCC1 [LEE011, 7-cyclopentyl-2-(5-piperazin-1-yl-pyridin-2-ylamino)-7H-pyrrolo[2,3-d]pyrimidine-6-carboxylic acid dimethylamide]
- tumor volume changes over time [1]: no single agent activity
- CYP3A4/5 inhibition (CYP3A4/5): inhibitor of CYP3A4/5
- Rb phosphorylation (Rb S807/811) (phospho-Rb (Rb S807/811)): inhibited by LEE011 single agent in 3 out of 4 cell lines
- MTD [7]: 900 mg qd
